This is an account of results in patent US4948782A, “A method of promoting the growth of domestic animals with erythromycin derivative containing composition” (Kitasato Kenkyusho, priority 1987, dated 1990).

Type in all cases: cell-based
The test system of assay [1] is Staphylococcus aureus ATCC 6538P. The experiment in a line: MIC, Staphylococcus aureus ATCC 6538P (SA(1)). As to conditions: Staphylococcus aureus, ATCC6538P, Staphylococcus aureus ATCC 6538P; read-out: MIC SA (1). From the text: (§1) The minimum inhibitory concentrations (MIC: mcg/ml) of the erythromycin derivatives of the present invention and the control erythromycin derivative (*) as the known growth promoting agent on typical test bacteria are shown in the following Tables 1 to 5.
SA(1): Staphylococcus aureus ATCC 6538P

Assay [2] has as its system Staphylococcus aureus FDA 209P. The assay can be described thus: MIC, Staphylococcus aureus FDA 209P (SA(2)). As to conditions: Staphylococcus aureus, FDA209P, Staphylococcus aureus FDA 209P; read-out: MIC SA (2).
From the text: as §1
SA(2): Staphylococcus aureus FDA 209P

Assay [3] relates to Bacillus subtilis. The experiment in a line: MIC, Bacillus subtilis (BS). The settings on record: read-out: MIC BS.
Assay [4] concerns Bacillus cereus IFO 3001. The experiment in a line: MIC, Bacillus cereus IFO 3001 (BC). The settings on record: Bacillus cereus, IFO3001, Bacillus cereus IFO 3001; read-out: MIC BC.
For assay [5], the system named is Escherichia coli NIHJ. The assay can be described thus: MIC, Escherichia coli NIHJ (EC).
The subject of assay [6] is Klebsiella pneumoniae ATCC 10031. The experiment in a line: MIC, Klebsiella pneumoniae ATCC 10031 (KP). As to conditions: ATCC10031; Klebsiella pneumoniae ATCC 10031; read-out: MIC KP.

`CCCC[N+](C)(C)[C@H]1C[C@@H](C)O[C@@H](O[C@@H]2[C@@H](C)[C@H](O[C@H]3C[C@@](C)(OC)[C@@H](O)[C@H](C)O3)[C@@H](C)C(=O)O[C@H](CC)[C@@](C)(O)[C@H](O)[C@@H](C)C3O[C@]2(C)CC3C)[C@@H]1O` (stereo partly drawn) [Compound 65]: the MIC (commonly the lowest concentration found to suppress growth) is 100 µg/mL in assay [1]; 100 µg/mL in assay [2]; 50 µg/mL in assay [3]; 100 µg/mL in assay [4]; over 100 µg/mL in assay [5]; over 100 µg/mL in assay [6].
In the case of `C=CCN(C)C1CC(C)OC(OC2C(C)C(OC3CC(C)(OC)C(O)C(C)O3)C(C)C(=O)OC(CC)C(C)(O)C(O)C(C)C3=C(C)CC2(C)O3)C1O` (stereo not drawn) [Compound 34], the MIC in assay [1], in assay [2], in assay [3], in assay [4], in assay [5] and in assay [6] was over 100 µg/mL in each case.
Turning to `CC[C@H]1OC(=O)[C@H](C)[C@@H](O[C@H]2C[C@@](C)(OC)[C@@H](O)[C@H](C)O2)[C@H](C)[C@@H](O[C@@H]2O[C@H](C)C[C@H]([N+](C)(C)Cc3ccccc3)[C@H]2O)[C@@]2(C)CC(C)C3(O[C@@]1(C)[C@H](O)[C@H]3C)O2` (stereo partly drawn) [Compound 73], the MIC in assay [1], in assay [2], in assay [3], in assay [4], in assay [5] and in assay [6] was over 100 µg/mL throughout.
As to `CCC1OC(=O)C(C)C(OC2CC(C)(OC)C(O)C(C)O2)C(C)C(OC2OC(C)CC(NC)C2O)C2(C)CC(C)=C(O2)C(C)C(O)C1(C)O` (stereo not drawn) [Compound 8], the MIC in assay [1], in assay [2], in assay [3], in assay [4], in assay [5] and in assay [6] was over 100 µg/mL throughout.
Regarding `C=CC[N+](CC=C)(CC=C)C1CC(C)OC(OC2C(C)C(OC3CC(C)(OC)C(O)C(C)O3)C(C)C(=O)OC(CC)C(C)(O)C(O)C(C)C3=C(C)CC2(C)O3)C1O` (stereo not drawn) [Compound 46], the MIC in assay [1], in assay [2], in assay [3], in assay [4], in assay [5] and in assay [6] was over 100 µg/mL each time.
For `CCC1OC(=O)C(C)C(OC2CC(C)(OC)C(O)C(C)O2)C(C)C(OC2OC(C)CC(N(C)CC)C2O)C2(C)CC(C)=C(O2)C(C)C2OC(=O)OC12C` (stereo not drawn) [Compound 54], the MIC in assay [1], in assay [2], in assay [3], in assay [4], in assay [5] and in assay [6] was over 100 µg/mL each time.
As for `CC[C@H]1OC(=O)[C@H](C)[C@@H](O[C@H]2C[C@@](C)(OC)[C@@H](OC=O)[C@H](C)O2)[C@H](C)[C@@H](O[C@@H]2O[C@H](C)C[C@H]([N+](C)(C)CC)[C@H]2O)[C@@]2(C)CC(C)=C(O2)[C@H](C)[C@@H](O)[C@]1(C)O` [Compound 59], the MIC in assay [1], in assay [2], in assay [3], in assay [4], in assay [5] and in assay [6] was over 100 µg/mL throughout.
For the molecule `C#CC[N+](C)(CC=C)C1CC(C)OC(OC2C(C)C(OC3CC(C)(OC)C(O)C(C)O3)C(C)C(=O)OC(CC)C(C)(O)C(O)C(C)C3=C(C)CC2(C)O3)C1O` (stereo not drawn) [Compound 44], the MIC is over 100 µg/mL in assay [1]; 100 µg/mL in assay [2]; over 100 µg/mL in assay [3]; over 100 µg/mL in assay [4]; over 100 µg/mL in assay [5]; over 100 µg/mL in assay [6].
`CCC1OC(=O)C(C)C(OC2CC(C)(OC)C(O)C(C)O2)C(C)C(OC2OC(C)CC(N(C)CC)C2O)C2(C)CC(C)=C(O2)C(C)C(O)C1(C)O` (stereo not drawn) [Compound 10]: the MIC in assay [1], in assay [2], in assay [3], in assay [4], in assay [5] and in assay [6] was over 100 µg/mL throughout.
As for `CC[C@H]1OC(=O)[C@H](C)[C@@H](O[C@H]2C[C@@](C)(OC)[C@@H](O)[C@H](C)O2)[C@H](C)[C@@H](O[C@@H]2O[C@H](C)C[C@H]([N+](C)(C)CC)[C@H]2O)[C@@]2(C)CC(C)=C(O2)[C@H](C)[C@@H](O)[C@]1(C)O` [Compound 61], the MIC in assay [1], in assay [2], in assay [3], in assay [4], in assay [5] and in assay [6] was over 100 µg/mL throughout.
As for `CCC1OC(=O)C(C)C(OC2CC(C)(OC)C(O)C(C)O2)C(C)C(OC2OC(C)CC([N+](C)(C)C)C2O)C2(C)CC(C)=C(O2)C(C)C(O)C1(C)O` (stereo not drawn) [Compound 1], the MIC in assay [1], in assay [2], in assay [3], in assay [4], in assay [5] and in assay [6] was over 100 µg/mL in each case.
For the molecule `CCC1OC(=O)C(C)C(OC2CC(C)(OC)C(OC=O)C(C)O2)C(C)C(OC2OC(C)CC([N+](C)(C)C)C2O)C2(C)CC(C)=C(O2)C(C)C(OS(C)(=O)=O)C1(C)O` (stereo not drawn) [Compound 4], the MIC in assay [1], in assay [2], in assay [3], in assay [4], in assay [5] and in assay [6] was over 100 µg/mL each time.
`CC[C@H]1OC(=O)[C@H](C)[C@@H](O[C@H]2C[C@@](C)(OC)[C@@H](O)[C@H](C)O2)[C@H](C)[C@@H](O[C@@H]2O[C@H](C)C[C@H]([N+](C)(C)CC)[C@H]2O)[C@@]2(C)CC(C)C(O2)[C@H](C)[C@@H](O)[C@]1(C)O` (stereo partly drawn) [Compound 63]: the MIC in assay [1], in assay [2], in assay [3], in assay [4], in assay [5] and in assay [6] was over 100 µg/mL each time.
Turning to `C=CC[N+](C)(C)[C@H]1C[C@@H](C)O[C@@H](O[C@@H]2[C@@H](C)[C@H](O[C@H]3C[C@@](C)(OC)[C@@H](O)[C@H](C)O3)[C@@H](C)C(=O)O[C@H](CC)[C@@](C)(O)[C@H](O)[C@@H](C)C3O[C@]2(C)CC3C)[C@@H]1O` (stereo partly drawn) [Compound 66], the MIC in assay [1] was 100 µg/mL; in assay [2] it was 100 µg/mL; in assay [3], 100 µg/mL; in assay [4], 100 µg/mL; in assay [5], over 100 µg/mL; in assay [6], over 100 µg/mL.
Consider `CCC1OC(=O)C(C)C(OC2CC(C)(OC)C(O)C(C)O2)C(C)C(OC2OC(C)CC([N+](C)(C)CC)C2O)C2(C)CC(C)=C(O2)C(C)C(OC(C)=O)C1(C)OC(C)=O` (stereo not drawn) [Compound 29], for which the MIC in assay [1] was 100 µg/mL; in assay [2], 50 µg/mL; in assay [3], 100 µg/mL; in assay [4], 100 µg/mL; in assay [5], over 100 µg/mL; in assay [6] it was over 100 µg/mL.
As to `CCC1OC(=O)C(C)C(OC2CC(C)(OC)C(O)C(C)O2)C(C)C(OC2OC(C)CC([N+]3(CC)CCCCC3)C2O)C2(C)CC(C)=C(O2)C(C)C(O)C1(C)O` (stereo not drawn) [Compound 26], the MIC in assay [1], in assay [2], in assay [3], in assay [4], in assay [5] and in assay [6] was over 100 µg/mL each time.
On to `CCC1OC(=O)C(C)C(OC2CC(C)(OC)C(O)C(C)O2)C(C)C(OC2OC(C)CC([N+](C)(C)CC(=O)OC)C2O)C2(C)CC(C)=C(O2)C(C)C(O)C1(C)O` (stereo not drawn) [Compound 30], for which the MIC in assay [1], in assay [2], in assay [3], in assay [4], in assay [5] and in assay [6] was over 100 µg/mL throughout.
Regarding `C#CC[N+](C)(C)[C@H]1C[C@@H](C)O[C@@H](O[C@@H]2[C@@H](C)[C@H](O[C@H]3C[C@@](C)(OC)[C@@H](O)[C@H](C)O3)[C@@H](C)C(=O)O[C@H](CC)[C@@](C)(O)[C@H](O)[C@@H](C)C(=O)[C@H](C)C[C@@]2(C)O)[C@@H]1O` [Compound 78], the MIC in assay [1] is 12.5 µg/mL; in assay [2] it was 25 µg/mL; in assay [3], 6.25 µg/mL; in assay [4] it was 6.25 µg/mL; in assay [5], over 100 µg/mL; in assay [6], over 100 µg/mL.
Regarding `CCC1OC(=O)C(C)C(OC2CC(C)(OC)C(O)C(C)O2)C(C)C(OC2OC(C)CC(N(CC)CC)C2O)C2(C)CC(C)=C(O2)C(C)C(O)C1(C)O` (stereo not drawn) [Compound 20], the minimal inhibitory concentration (MIC) in assay [1], in assay [2], in assay [3], in assay [4], in assay [5] and in assay [6] was over 100 µg/mL in each case.
For the molecule `C#CCN(C)C1CC(C)OC(OC2C(C)C(OC3CC(C)(OC)C(O)C(C)O3)C(C)C(=O)OC(CC)C(C)(O)C(O)C(C)C3=C(C)CC2(C)O3)C1O` (stereo not drawn) [Compound 35], the MIC in assay [1], in assay [2], in assay [3], in assay [4], in assay [5] and in assay [6] was over 100 µg/mL throughout.
Consider `CC[C@H]1OC(=O)[C@H](C)[C@@H](O[C@H]2C[C@@](C)(OC)[C@@H](OC=O)[C@H](C)O2)[C@H](C)[C@@H](O[C@@H]2O[C@H](C)C[C@H]([N+](C)(C)C)[C@H]2O)[C@@]2(C)CC(C)=C(O2)[C@H](C)[C@@H](O)[C@]1(C)O` [Compound 58], for which the MIC in assay [1], in assay [2], in assay [3], in assay [4], in assay [5] and in assay [6] was over 100 µg/mL in each case.
